Reference: US20090269795A1, “Mutant alpha4betadelta GABAA receptor and methods of treating anxiety or irritability” (priority 2007, published 2009)

Tests used:
Test in all cases: Whole cell patch clamp of GABA-gated current, recombinant receptors in HEK-293 cells
Details in all cases: 30 nM THP
α1β2δ receptors = target: T1, α1β2δ receptors (Rattus norvegicus, UniProt P62813+P63138); assay type: cell-based, rat α1, rat β2, human δ
T1 construct: expressed in transfected cells; host or cells: HEK-293
T1 sequence (P62813 28-455): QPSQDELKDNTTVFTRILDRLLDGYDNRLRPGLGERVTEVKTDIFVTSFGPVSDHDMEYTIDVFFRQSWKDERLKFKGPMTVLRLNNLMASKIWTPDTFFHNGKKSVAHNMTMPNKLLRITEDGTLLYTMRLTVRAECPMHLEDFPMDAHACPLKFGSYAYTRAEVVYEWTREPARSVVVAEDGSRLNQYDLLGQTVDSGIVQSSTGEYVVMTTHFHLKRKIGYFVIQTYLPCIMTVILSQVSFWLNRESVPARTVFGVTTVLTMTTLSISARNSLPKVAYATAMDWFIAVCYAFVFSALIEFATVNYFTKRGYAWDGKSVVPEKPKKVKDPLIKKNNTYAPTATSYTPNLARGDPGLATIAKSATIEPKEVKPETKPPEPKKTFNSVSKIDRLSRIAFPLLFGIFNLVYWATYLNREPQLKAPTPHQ
T1 sequence (P63138 25-474 limits assumed): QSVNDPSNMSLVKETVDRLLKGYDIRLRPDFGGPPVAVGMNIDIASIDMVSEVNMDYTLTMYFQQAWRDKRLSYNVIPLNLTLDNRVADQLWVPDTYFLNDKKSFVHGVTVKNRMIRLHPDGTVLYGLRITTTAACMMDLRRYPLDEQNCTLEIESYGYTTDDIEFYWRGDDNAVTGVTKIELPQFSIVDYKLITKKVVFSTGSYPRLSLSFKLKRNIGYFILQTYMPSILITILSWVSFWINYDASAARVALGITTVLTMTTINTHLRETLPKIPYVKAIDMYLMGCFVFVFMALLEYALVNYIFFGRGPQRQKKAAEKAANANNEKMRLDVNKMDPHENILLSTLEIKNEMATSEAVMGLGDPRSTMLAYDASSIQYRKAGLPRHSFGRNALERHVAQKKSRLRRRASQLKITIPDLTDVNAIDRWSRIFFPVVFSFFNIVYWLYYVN
T1 sequence (O14764 25-452 partner): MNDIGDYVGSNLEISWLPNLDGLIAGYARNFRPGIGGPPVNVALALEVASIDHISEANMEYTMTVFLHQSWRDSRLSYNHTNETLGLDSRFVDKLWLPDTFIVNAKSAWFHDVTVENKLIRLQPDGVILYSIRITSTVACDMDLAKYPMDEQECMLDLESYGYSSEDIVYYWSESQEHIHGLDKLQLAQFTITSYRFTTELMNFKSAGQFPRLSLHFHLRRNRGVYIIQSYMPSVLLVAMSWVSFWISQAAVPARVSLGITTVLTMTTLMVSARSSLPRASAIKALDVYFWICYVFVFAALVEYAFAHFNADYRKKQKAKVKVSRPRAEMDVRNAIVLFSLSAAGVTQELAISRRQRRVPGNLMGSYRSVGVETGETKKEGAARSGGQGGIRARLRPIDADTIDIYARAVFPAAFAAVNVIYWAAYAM
From the text: (§1) Recombinant receptors: Transfection—Plasmids obtained from S. Vicini (rat α1, α5, β2, β3 and γ2), P. Whiting (human α4 and δ) and N. L. Harrison (mouse α4) were propagated in E coli DH5α and prepared using Qiagen Maxi- or Midi-prep kits. (Rat, mouse and human α1, β2, β3 and γ2 subunits are identical or nearly identical.) All receptors were transfected at a 1:1:1 ratio, except α1β2γ2 (1:1:5)^12, α4βδ (5:1:5)^13 and α4β2γ2 (5:1:1). HEK-293 cells were maintained in medium (DMEM:Ham's F-12 1:1) supplemented with 10% fetal calf serum at 37° C. in a humid 5% CO2 atmosphere. Cells were transfected using calcium phosphate or Polyfect (Qiagen) and co-transfected with enhanced green fluorescent protein (ratio of DNA to eGFP was 6:1 or 10:1 depending on the DNA concentration) for visualization. α4-containing GABAA receptors required 2-3 d for maximal levels of expression; all other receptors were recorded 1-2 d after transfection. Because mouse α4 and human α4-containing receptors yielded the same results, the currents were averaged together.
(§2) Whole cell patch clamp recording—GABA-gated currents were recorded at room temperature (20-22° C.) at a holding potential of −50 mV^14. […] Currents were recorded using an Axopatch 1D amplifier (Axon Instruments) filtered at 2 kHz (four-pole Bessel filter) and detected at 10 kHz (pClamp 5.1). […]

α4β3δ receptors = assay type: cell-based, human or mouse α4, rat β3, human δ
From the text: as §1, §2

α5β2/3γ2 receptors = assay type: cell-based, rat
From the text: Recombinant receptors: Transfection—Plasmids obtained from S. Vicini (rat α1, α5, β2, β3 and γ2), P. Whiting (human α4 and δ) and N. L. Harrison (mouse α4) were propagated in E coli DH5α and prepared using Qiagen Maxi- or Midi-prep kits. (Rat, mouse and human α1, β2, β3 and γ2 subunits are identical or nearly identical.) All receptors were transfected at a 1:1:1 ratio, except α1β2γ2 (1:1:5)^12, α4βδ (5:1:5)^13 and α4β2γ2 (5:1:1). HEK-293 cells were maintained in medium (DMEM:Ham's F-12 1:1) supplemented with 10% fetal calf serum at 37° C. in a humid 5% CO2 atmosphere.
The pipet solution contained (in mM): N-methyl-D-glucamine chloride 120, Cs4BAPTA 5 (Calbiochem), Mg-ATP 5, and an ATP regeneration system (20 mM Tris phosphocreatine and creatine kinase). Internal [Cl^−] or the holding potential were varied, using gluconate as the anion, to alter the direction of Cl^− flow, corrected for the junction potential.
HEK-293 cells were maintained in medium (DMEM:Ham's F-12 1:1) supplemented with 10% fetal calf serum at 37° C. in a humid 5% CO2 atmosphere.

Measured: effect on outward current

CC(=O)[C@H]1CC[C@H]2[C@@H]3CC[C@H]4C[C@H](O)CC[C@]4(C)[C@H]3CC[C@]12C [THP, 3α-OH-5α[β]-pregnan-20-one]
either increased or had no effect: all assays above
